Inhibition data for 36 molecules are collected here from the Kinase Knowledgebase extract (Sharma et al. 2016).

What is called inhibition is the relative decrease from the control value, in per cent.

SMILES strings stand for the structures.

The assay deals with CDK2 (human) (UniProt P24941). Description: Enzyme Assay. The settings on record: concentration not given here.
Turning to `Cc1ccc(CCCC(=O)N2CCC(Nc3nc(N)c(C(=O)c4c(F)cccc4F)s3)CC2)c(C)c1`, the inhibition was 35%. As to `Nc1nc(NC2CCN(C(=O)COc3ccccc3O)CC2)sc1C(=O)c1c(F)cccc1F`, the inhibition turned out to be 63%. As for `Nc1nc(NC2CCN(C(=O)C3(c4ccccc4)CCCC3)CC2)sc1C(=O)c1c(F)cccc1F`, the figure is -13%. As for `Nc1nc(NC2CCN(C(=O)CNc3ccccc3)CC2)sc1C(=O)c1c(F)cccc1F`, the figure is 57%; as for `Nc1nc(NC2CCN(C(=O)C3CCc4ccccc4O3)CC2)sc1C(=O)c1c(F)cccc1F` (stereo unspecified), 6%. As for `Nc1nc(NC2CCN(C(=O)CC3CCCCC3)CC2)sc1C(=O)c1c(F)cccc1F`, the figure is -5%; as for `CSc1ccccc1C(=O)N1CCC(Nc2nc(N)c(C(=O)c3c(F)cccc3F)s2)CC1`, 40%; as for `Nc1nc(NC2CCN(C(=O)Oc3ccc(F)cc3)CC2)sc1C(=O)c1c(F)cccc1F`, 47%. On to `Nc1nc(NC2CCN(C(=O)C(O)Cc3ccc(O)cc3)CC2)sc1C(=O)c1c(F)cccc1F` (stereo unspecified), for which the inhibition came to 34%. In the case of `COc1ccc2oc(C(=O)N3CCC(Nc4nc(N)c(C(=O)c5c(F)cccc5F)s4)CC3)cc2c1` it was 61%; in that of `CC(C)C(O)C(=O)N1CCC(Nc2nc(N)c(C(=O)c3c(F)cccc3F)s2)CC1` (stereo unspecified), 27%; in that of `Nc1nc(NC2CCN(C(=O)c3ccc(-n4cccc4)nc3)CC2)sc1C(=O)c1c(F)cccc1F`, 61%. In the case of `CSCC(=O)N1CCC(Nc2nc(N)c(C(=O)c3c(F)cccc3F)s2)CC1` it was 84%. With `Cc1ccc(/C=C/C(=O)N2CCC(Nc3nc(N)c(C(=O)c4c(F)cccc4F)s3)CC2)cc1C`, the inhibition was found to be 52%.

With `Nc1nc(NC2CCN(C(=O)Cc3cccs3)CC2)sc1C(=O)c1c(F)cccc1F`, the inhibition worked out at 73%. In the case of `Nc1nc(NC2CCN(C(=O)C3CCC(=O)CC3)CC2)sc1C(=O)c1c(F)cccc1F` it was 48%; in that of `Cc1nn(C)c2ncc(C(=O)N3CCC(Nc4nc(N)c(C(=O)c5c(F)cccc5F)s4)CC3)c(Cl)c12`, 16%. As for `CCCCC(C)C(=O)N1CCC(Nc2nc(N)c(C(=O)c3c(F)cccc3F)s2)CC1` (stereo unspecified), the figure is -2%; as for `Cc1ncccc1C(=O)N1CCC(Nc2nc(N)c(C(=O)c3c(F)cccc3F)s2)CC1`, 52%.

On to `CC(=O)OCC(=O)N1CCC(Nc2nc(N)c(C(=O)c3c(F)cccc3F)s2)CC1`, for which the inhibition worked out at 25%.

As for `COC(=O)CC(=O)N1CCC(Nc2nc(N)c(C(=O)c3c(F)cccc3F)s2)CC1`, the inhibition is -24%. In the case of `Nc1nc(NC2CCN(C(=O)c3ccco3)CC2)sc1C(=O)c1c(F)cccc1F` it was 49%. As for `CC(=O)CC(=O)C(=O)N1CCC(Nc2nc(N)c(C(=O)c3c(F)cccc3F)s2)CC1`, the figure is 50%; as for `CCOc1ccccc1/C=C/C(=O)N1CCC(Nc2nc(N)c(C(=O)c3c(F)cccc3F)s2)CC1`, 80%; as for `Nc1nc(NC2CCN(C(=O)Cc3cccc(O)c3)CC2)sc1C(=O)c1c(F)cccc1F`, 44%. With `Nc1nc(NC2CCN(C(=O)c3cccc4ccccc34)CC2)sc1C(=O)c1c(F)cccc1F`, the inhibition was found to be 55%. As for `Cc1cccc(OCC(=O)N2CCC(Nc3nc(N)c(C(=O)c4c(F)cccc4F)s3)CC2)c1C`, the figure is 40%; as for `CC1CC1C(=O)N1CCC(Nc2nc(N)c(C(=O)c3c(F)cccc3F)s2)CC1` (stereo unspecified), -10%. As for `CN(C)c1ccc(N=Nc2ccc(S(=O)(=O)N3CCC(Nc4nc(N)c(C(=O)c5c(F)cccc5F)s4)CC3)cc2)cc1`, the figure is -20%. On to `Cc1ccc(C)c(CCCC(=O)N2CCC(Nc3nc(N)c(C(=O)c4c(F)cccc4F)s3)CC2)c1`, for which the inhibition was 41%. On to `Nc1nc(NC2CCN(C(=O)c3ccc(F)c(Cl)c3)CC2)sc1C(=O)c1c(F)cccc1F`, for which the inhibition came out at 48%. As for `Nc1nc(NC2CCN(C(=O)CCc3ccc(O)cc3)CC2)sc1C(=O)c1c(F)cccc1F`, the figure is 13%; as for `Nc1nc(NC2CCN(C(=O)c3cc(F)c(F)c(F)c3)CC2)sc1C(=O)c1c(F)cccc1F`, 65%. As for `Nc1nc(NC2CCN(C(=O)c3cccnc3)CC2)sc1C(=O)c1c(F)cccc1F`, the figure is 28%; as for `CN(C)C(=O)N1CCC(Nc2nc(N)c(C(=O)c3c(F)cccc3F)s2)CC1`, -43%. As for `Cc1c(S(=O)(=O)N2CCC(Nc3nc(N)c(C(=O)c4c(F)cccc4F)s3)CC2)sc2ccc(Cl)cc12`, the figure is -2%.
